{"source": "patent EP0574185B1", "about": "“PGE1 analogs” (NEWPHARMA INTERNATIONAL CORPORATION, priority 1992, dated 1993)", "key": {"[1]": {"test_system": "isolated uterus of estrogenized rats", "experiment": "Effect on isolated uterus of estrogenized rats (non-cumulative concentration-response curves)", "parameters": "species or system Wistar rats", "details": "for Area (g of tension/2 min): average", "procedure": "Concentration-response curves were carried out on isolated uterus of estrogenized rats. Female Wistar rats weighing 250g to 300g were employed. The animals were pretreated with 0.1 mg/kg of estradiol, subcutaneously, 24 h before the experiment. The whole uterus was dissected and excised and a portion of 1 cm of one horn was incubated in a 10 ml organ bath, at 30°C, bubbled with a mixture of 95 % O2 plus 5 % CO2. The nutrient solution was De Jalon solution described in the International Pharmacopea II^nd Ed. and containing 4x10^-7 M sodium diclofenac. The organ was left to stabilize in the solution for one hour. No spontaneous contractions were detected under these experimental conditions. To carry out the concentration-response curves, volumes of solutions of either natural prostaglandins or B-407 were added in order to obtain concentrations in the organ bath between 10^-10 M and 3x10^-6 M. After 2 minutes, the organ was washed three times during a 15 minutes time period before adding the next test solution. In this way the concentration-response curves obtained were not cumulative [\"The rat uterus preparation\" in \"Pharmacological Experiments on Isolated Preparations\". E. and S. Livingstone Ltd. Edinburgh and London (1968), p. 92].\nRecording of the contractions of the isolated uterus were on a Berger polygraph with a FT03C transducer. The frequency and magnitude of the responses were globally evaluated by calculating the total area recorded at fixed time periods as will be further explained.\nThe frequency and magnitude of the responses were globally evaluated by calculating the total area recorded at a fixed time period as will be further explained. The areas under the curve of the recording paper, over 15 minutes periods, were cut and weighed both in the concentration-response curves and in the potentiating experiments.\nThe calibration was made by weighing a piece of paper which corresponded to a tension of 1 g at the working sensitivity along 2 minutes. Therefore, a relationship of area expressed in g/2 min was obtained and then the weights of the areas of the responses were transformed to unities of area. The results were expressed as the mean ± the standard error of the areas obtained. The statistical evaluation of the differences was carried out either by ANOVA or by Student's-t-test, as appropriate."}, "[2]": {"test_system": "guinea pig isolated trachea", "experiment": "Relaxation of histamine contracted guinea pig tracheal chain in vitro", "parameters": "species or system guinea pigs", "details": "10^-5 M; percentage on the histamine (1x10^-6 M) induced contraction; n = 8; vehicle -7 ± 3", "procedure": "The effect of B-407 on isolated trachea was evaluated in guinea pigs weighing 700 g. The animals were killed and the trachea was dissected out, transferred to a dish containing Krebs solution and cut transversely between the segments of cartilage, so as to give a number of rings of tracheal muscle. Five rings were tied up together with cotton threads, so as to form a chain, which was then mounted in a 10 ml bath with Krebs solution at 37°C, aerated with a mixture of oxygen (95 %) and carbon dioxide (5 %). The load on the lever was 0.4 g. The organ was left to stabilize for 15 to 30 min.\nEnough quantity (100 µl) of 0.1 mM histamine solution was added to the bath (1x10^-6 M) in order to obtain a contraction of 0.2 g to 0.5 g of tension. After the contraction reached a plateau, 100 µl of ethanol: distilled water (1:1) (vehicle as control) was added to the bath. Eight minutes later, the preparation was relaxed by washing 4 to 6 times. […]\nThe relaxation induced by B-407 was expressed as a percentage on the histamine induced contraction. The average ± standard error of all the determinations were calculated [\"The guinea-pig tracheal chain\"; \"Pharmacological Experiments on Isolated Preparations\". […]"}, "[3]": {"experiment": "Diarrheagenic effect in mice", "parameters": "species or system Swiss mice", "details": "mouse, in vivo", "procedure": "The diarrheagenic effect of the synthetic PGE1 analog B-407 was evaluated in Swiss mice. The effect of the intraperitoneal and intravaginal routes of administration were studied as follows:\nSix groups of ten mice (25 to 30 g) each (5 ♂ and 5 ♀) were used. They received i.p. doses of 0; 1; 3; 10; 30 and 100 µg/kg of the test drug. The diarrheagenic response was evaluated on an \"all-or-none\" basis as described in section C.\nA seven points dose-response curve was performed for B-407. Eight groups of six mice (18 to 25 g) each received doses of 0; 10; 18; 32; 56; 100; 160 and 250 µg/kg of B-407.\nThe intravaginal administration was made through a polyethylene catheter attached to a 1 ml syringe. This system allows the delivery of volumes of 10 to 15 µl.\nThe animals were evaluated in an \"all-or-none\" basis as the ratio of the number of animals with diarrhea over the total number of mice in the group. The median effective doses (ED50) with their fiducial limits and the statistics were performed according Litchfield and Wilcoxon [Eur. J. Pharmacol. 34, 105 (1975); J. Pharmacol. Exp. Ther., 96, 99 (1949)]."}, "rat uterus": {"test_system": "rat uterus", "experiment": "Disappearance of exogenous PGF2α in rat uterus slices (R.I.A.)", "parameters": "species or system Wistar rats", "procedure": "An experiment was performed in which the disappearance of exogenous PGF2α was determined in the nutrient solution of slices of rat uterus both in the presence and absence of the synthetic PGE1 analog, B-407.\nSeven Wistar rats weighing approximately 220 g were estrogenized by the subcutaneous administration of 100 µg/kg of 17β estradiol. Twenty-four hours later they were killed by decapitation. The uterine horns were dissected out and weighed. The horns were cut and washed with bubbled De Jalon nutrient solution plus 4x10^-7 M sodium diclofenac during 15 to 20 minutes. Both bubbling and diclofenac content were maintained in the following steps: each horn was then placed in a small organ bath and preincubated during 15 to 20 min with either the nutrient solution alone or containing B-407 10^-8 M or 10^-7 M. The assay was started by adding exogenous PGF2α (10^-8 M in the medium) to each horn previously changed to a new tube. A final volume of 0.4 ml was obtained with the addition of De Jalon solution at 37°C. Aliquots of […] were sampled at 0 min, 5 min, 15 min and 30 min. The PGF2α concentration in each sample was determined by R.I.A. (Sigma, NEN) and it was expressed as pg/mg of wet tissue."}}}
{"molecule": "CCCCC(C)(O)C/C=C/[C@H]1[C@H](O)CC(=O)[C@@H]1CCCC/C=C/C(=O)OC", "note": "(mixture of isomers) [B-407, trans-Δ^2-15-deoxy-16-hydroxy-16-methyl PGE1 methyl ester]", "values": [{"measurement": "Area (g of tension/2 min)", "setting": "[1]; 1x10^-6 M, n=6", "result": "1,13 g of tension/ 2 min"}, {"measurement": "Area (g of tension/2 min)", "setting": "[1]; 1x10^-7 M, n=6", "result": "0,31 g of tension/ 2 min"}, {"measurement": "Area (g of tension/2 min)", "setting": "[1]; 1x10^-8 M, n=6", "result": "0,20 g of tension/ 2 min"}, {"measurement": "Area (g of tension/2 min)", "setting": "[1]; 1x10^-9 M, n=6", "result": "0,12 g of tension/ 2 min"}, {"measurement": "Area (g of tension/2 min)", "setting": "[1]; 1x10^-10 M, n=6", "result": "0,14 g of tension/ 2 min"}, {"measurement": "Area (g of tension/2 min)", "setting": "[1]; 3x10^-6 M, n=5", "result": "0,67 g of tension/ 2 min"}, {"measurement": "times less potent than PGE1 on rat uterine contractility in vitro", "setting": "[1]; PGE1 results are not shown", "result": "about 4 times"}, {"measurement": "% of relaxation", "setting": "[2]", "result": "35 ± 5", "unit": "%"}, {"measurement": "ED50", "setting": "[3]; ip, confidence limits 1,95 to 8,65, n 10", "result": 0.00412, "unit": "mg/kg"}, {"measurement": "ED50", "setting": "[3]; i.vag., confidence limits 27,4 to 124,9, n 6", "result": 0.0583, "unit": "mg/kg"}, {"measurement": "PGF2α (pg/mg tissue)", "setting": "rat uterus; B-407 10^-7 M, time 0 min, control 655,4", "result": "667,2 pg/mg tissue"}, {"measurement": "PGF2α (pg/mg tissue)", "setting": "rat uterus; B-407 10^-7 M, time 5 min, control 582.8", "result": "623,7 pg/mg tissue"}, {"measurement": "PGF2α (pg/mg tissue)", "setting": "rat uterus; B-407 10^-7 M, time 15 min, control 478.4", "result": "561,7 pg/mg tissue"}, {"measurement": "PGF2α (pg/mg tissue)", "setting": "rat uterus; B-407 10^-7 M, time 30 min, control 227.5", "result": "528,4 pg/mg tissue"}, {"measurement": "PGF2α (pg/mg tissue)", "setting": "rat uterus; B-407 10^-8 M, time 0 min, control 655,4", "result": "705,7 pg/mg tissue"}, {"measurement": "PGF2α (pg/mg tissue)", "setting": "rat uterus; B-407 10^-8 M, time 5 min, control 582.8", "result": "705,9 pg/mg tissue"}, {"measurement": "PGF2α (pg/mg tissue)", "setting": "rat uterus; B-407 10^-8 M, time 15 min, control 478.4", "result": "563,6 pg/mg tissue"}, {"measurement": "PGF2α (pg/mg tissue)", "setting": "rat uterus; B-407 10^-8 M, time 30 min, control 227.5", "result": "403,7 pg/mg tissue"}]}
